Results published in US20190083455A1, “METHODS AND COMPOSITIONS FOR THE MODULATION OF BETA-ENDORPHIN LEVELS” (The General Hospital Corporation, priority 2014, published 2019).

Key:
mice = assay: Conditioned place preference testing with i.v. β-endorphin; format: in vivo; details: i.v. tail vein
Source text: To test whether it is plausible that skin-derived β-endorphin may cause central effects we decided to assess whether peripherally administered β-endorphin injected i.v. into the tail vein could cause conditioned place preference.

[1] = test system: B16, B16-F0, Melan-a and PAM212 mouse cell lines; assay: RT-qPCR of POMC and Mitf after forskolin treatment, mouse cell lines; format: cell-based; details: 20 μM forskolin; mouse cells
Procedure: (§1) UACC62 and UAC257 human melanoma cells were obtained from NCI and grown in RPMI (Cellgro) medium supplemented with 10% fetal bovine serum and penicillin/streptomycin/L-glutamine. Malme-3M human melanoma and B16 mouse melanoma cell line were obtained from ATCC and grown in DEMEM (Cellgro) medium supplemented with 5% fetal bovine serum and 1% penicillin/streptomycin/L-glutamine. Melan-a cells were kindly provided by Dorothy C. Bennett and were grown in Ham's F10 medium supplemented with 10% fetal bovine serum and 1% penicillin/streptomycin/L-glutamine. The mouse keratinocyte cell line PAM212 was generously shared by Dr. Paolo Dotto (Massachusetts General Hospital and Harvard Medical School, Boston, Mass.) and grown in 10% fetal bovine serum and 1% penicillin/streptomycin/L-glutamine. Cells were grown to 70% confluence prior to use in experiments in humidified incubators supplemented with 5% CO2.
(§2) After forskolin (Sigma) treatment at 20 μM final concentration at the stated times, mRNA was isolated using RNeasy® plus minikits from Qiagen, and was subjected to KAPA SYBR® FAST One-Step qRT-PCR (Kapa Biosystems). For each reaction, 100 ng of RNA was subjected to the following steps: reverse transcription for 30 min at 48° C., inactivation for 10 min at 95° C., expansion for 40 cycles (15 sec at 95° C. and 30 sec at 60° C.). The results are the average of three independent experiments. […]

[2] = test system: Malme-3M, UAC257 and UACC62 human melanoma cell lines; assay: RT-qPCR of POMC after forskolin treatment, human melanoma cell lines; format: cell-based; details: 20 μM forskolin; human samples
Procedure: as §1, §2

β-endorphin = assay: Plasma β-endorphin after topical forskolin treatment; format: in vivo; details: male mice, non-K14-SCF vs K14-SCF/Mc1r^e/e
Procedure: Blood samples from mice were collected in EDTA microvotte tubes containing 0.6 UTI aprotinin (Sigma). Samples were spun at 3500 rpm at 4° C. for 20 min and the plasma (top layer) was isolated and transferred to a new tube and stored at −80° C. until β-endorphin measurement was performed. β-Endorphin was measured using a radioimmunoassay from Phoenix Pharmaceuticals, following the manufacturer's instructions.
All experiments were done in C57BL/6J (Jackson laboratory) mice. C57BL/6J Mc1r^e/e (described at Robbins L S, et al., Pigmentation phenotypes of variant extension locus alleles result from point mutations that alter MSH receptor function. Cell. 1993 Mar. 26; 72(6) 72, 827-834.) were crossed with K14-Scf transgenic mice as previously reported (Kunisada T, et. al., Development. 1998 August; 125(15):2915-23.). Mice were 8 weeks old at the start of each experiment.
A crude extract of Coleus forskohlii root preparation was used as a working source of forskolin (ATZ Natural, Edgewater, N.J.) for the topical treatment of this drug (Lin C B, et. al., Modulation of microphthalmia-associated transcription factor gene expression alters skin pigmentation. J Invest Dermatol 119, 1330-1340 (2002)). […] Samples were processed and β-endorphin was measured.

| Molecule | conditioned place preference (time spent in the white box) (mice) | time of peak Mitf mRNA expression after treatment [1] [h] | time of peak POMC mRNA expression after treatment [1] [h] | time point of increase of POMC after treatment [2] [h] | β-endorphin fold induction, comparison of genotypes (β-endorphin) |
| --- | --- | --- | --- | --- | --- |
| β-endorphin (YGGFMTSEKSQTPLVTLFKNAIIKNAYKKGE; Beta-endorphin; UniProt P01189 237-267, looked up) [endogenous opioid peptide, administered i.v. through the tail vein] | spent more time in the white box after conditioning | – | – | – | – |
| C=C[C@@]1(C)CC(=O)[C@]2(O)[C@@]3(C)[C@@H](O)CCC(C)(C)[C@@H]3[C@H](O)[C@H](OC(C)=O)[C@@]2(C)O1 [forskolin] | – | 2 | 8 | 2 to 4 | higher fold induction in the non-K14-SCF mice compared to the K14-SCF/Mc1r^e/e |
